# Measurements from patent publication US20140099354A1, “BIOPASSIVATING MEMBRANE STABILIZATION BY MEANS OF NITROCARBOXYLIC ACID-CONTAINING PHOSPHOLIPIDS IN PREPARATIONS AND COATINGS” (priority 2011, published 2014).
# Assays:
# [1] = biological target: Glycophorin A (GpA) peptides (Homo sapiens, UniProt P02724); settings: 10-50% (mol/mol) admixed to DSPC vesicles; versus native phospholipids
# Description: The change of the Frster resonance energy transfer (FRET) of fluorescence-labelled peptides with α helical trans-membrane structure in a double lipid layer can be used for determination of the concentration of monomeric and dimeric trans-membrane helices and for quantitative determination of helix-helix interactions.
# FRET measurements were carried out with fluorescence-marked Glycophorin A (GpA) peptides. The transmembrane GpA forms dimers, whereby the energy transfer can be measured. 5-carboxyfluorescein and tetramethyl-6-carboxyrhodamine were used as chromophores.
# Degree of dimerization of the model protein was measured in a direct comparison between native phospholipids and the corresponding phospholipids with a nitrated alkyl chain for the given concentrations of phospholipids (10-50%, mol/mol) admixed to the DSPC vesicles.
# For determination of the dimerization, the peptides of FL GpAwt and TAMRA GpAwt were weighed and dissolved in TFE. The measurements were carried out on a fluorescence spectrometer of type Aminco Bowman series 2 (Thermo Spectronic).
# [2] = test system: human umbilical venous endothelial cells (HUVEC); assay: Endothelial cell homing on coated cobalt-chromium metal grids; format: cell-based; settings: days 3, 7 and 14
# Description: To investigate the cell homing of endothelial cells onto phospholipid-coated artificial surfaces, metal grids with a cobalt-chromium alloy such as has been described in example 2 were coated. Coatings were performed with nitro-carboxylic acid-containing phosphatidylcholine according to the examples N2-N6 and O6. These were special product mixtures of different esterified 1,2-di(nitro linoleoyl)-sn-glycero-3-phosphatidylcholines (N2), from different esterified 1,2-di(nitro arachidonoyl)-sn-glycero-3-phosphatidylcholines (N3), from different esterified 1,2-di(nitroarachidonoyl)-sn-glycero-3-phosphatidylcholines (N4), different esterified 1,2-di(nitro-γ-linolenoyl)-sn-glycero-3-phosphatidylcholines (N5) or different esterified 1,2-di(nitro-DHA)-sn-glycero-3-phosphatidylcholines (N6) and mixture of 1-palmitoyl-2-(10-hydroxy-9-nitro-α-linolenoyl)-sn-3-glycero-phosphocholine and 1-palmitoyl-2-(9-hydroxy-10-nitro-α-linolenoyl)-sn-3-glycero-phosphocholine (06). Uncoated metal grids served as controls. The grids were placed in a culture dish containing a gel matrix on which human umbilical venous endothelial cells (HUVEC) were grown to confluence. The culture media consisted of 5% FCS, and was changed every second day. Cultivation was performed according to standard procedures. The culture dishes were carefully washed superficially several times after 3, 7, and 14 days with saline. […]
# sciatic nerve = assay: Viability of cryopreserved nerve grafts (Annexin-V staining, FACS); format: cell-based, rats; settings: 100 mmolar solution 1 hour; −30° C. 72 hours
# ovarian tissue strips = assay: Cryopreservation of ovarian tissue strips: intact follicles; settings: liquid nitrogen 14 days, cultured 14 days
# Description: Ovar ectomy was performed in female sheep; resected tissues were cut into 60 ovarian tissue strips. The ovarian strips were either cultured directly (n=4) or prepared with a usual solution for vitrification (VS group; Vitrification Kit, Sage, USA) or incubated with nitrated PLs (NPL group). For this purpose, the tissue strips were bathed in an equibrilation solution (ART-8025-A) which consisted of MOPS-buffered amino acids and gentamicin sulfate (10 mg/l), and 7.5% (v/v) of each DMSO and ethylene glycol and 12 mg/ml human serum albumin for 30 minutes. Thereafter the strips of the VS group were placed in the vitrification solution (ART-8025-B), which is a MOPS-buffered solution containing amino acids and gentamicin sulfate, that contain 15% (v/v) each DMSO and ethylenglycol, 12 mg/ml human albumin and 0.6 M sucrose. The strips of the NPL group were placed in a solution containing 25% (v/v) nitrated PL SNOPC or PNLPC in a PBS-buffered 1% DMSO solution containing 5% human albumin for 60 minutes. The treated tissue strips were then immersed into liquid nitrogen and kept here for 14 days. Then removal and warming of the tissue pieces was performed in AIM-V medium (Gibco, Invitrogen) in a sterile culture dish, first up to 5° C. within 20 minutes, then heated further in a water bath up to 37° C., within the following 60 minutes. The culture medium was replaced and specimens cultured for 14 days. After this, the tissue pieces were fixed, embedded in paraffin and cut, followed by histological examination. […] The total number of intact follicles in the control group was taken as a reference to the number of follicles in the cryopreserved groups.
# The culture medium has been exchanged by every 2nd day; samples for hormone analysis were taken and frozen at that time. Determination of 17 β-estradiol and progesterone were performed with a radio-immuno assay (diagnostic systems laboratories, USA).
# [3] = Transisomerization of unsaturated fatty acids in coatings on balloon catheters (FTIR); format: physicochemical
# Source text: The natural phospholipids POPC and SLPE, as well as the analogous nitrated phospholipids as shown in example C(PNOPC) and […]), as well as the phospholipids according to examples […], and S as a mono substance and as a combination of the native phospholipids and the corresponding nitro-carboxylic acid (s)-containing phospholipids mixed in a ratio of 1:1 were used for this investigation. Balloon catheters were coated by means of the Langmuir-Schaefer procedure where the balloon segment was aligned longitudinally and coaxial to the solution surface, dipping into the liquid for approx. 1 mm over the entire length. Then the catheter was slowly rotated around its axis 5 times. […] The solution was cooled and given to the coating solution then. In case of incomplete dissolution of the phospholipids or if they separated when cooled, DMSO was added at a concentration of up to 20 vol.-%, preferably up to 10 vol.-%. After coating, the catheters were vacuum dried for 8 hours in order to remove residual solvent. The abrasion or loss of coating layers was determined by weighing the catheter before and after coating as well as after the mechanical stability test in the tubing system as described above using a high precision balance. In order to examine the long-term stability of the coating, catheters coated with phospholipids were sealed with polyethylene glycol 1000 (Roth, Germany). For that purpose PEG 1000 was melted and mixed with a 10% ethanol solution at 50° C. A portion of the phospholipid-coated balloon catheter was coated by means of dip-coating in this PEG solution at 50° C., and dried thereafter for 8 hours. Stability of cis-conformity of unsaturated fatty acids of the phospholipids investigated was determined after heat treatment at 60° C. for three hours in a heating cabinet. After 24 hours and after 2 months the phospholipids coated on the balloon surface were detached and analyzed. Detachment was carried out in 50 ml of a chloroform:methanol mixture (3:1, v: v). A 10 μl aliquot was used for a FTIR spectroscopy. For this purpose the samples were dropped on a ZnSe ATR crystal and then the solvent was evaporated. Degree of transisomerization was determined using the integral of intensity of proton resonance in comparison to that measured from a cis configuration of the reference substances. Measurements were performed 24 hours after coating, heat treatment and after 2 months of storage at 25° C. under sterile room air conditions.
# [4] = test system: HeLa, HUVEC and L929 fibroblast; assay: Cell viability with the live/dead assay; format: cell-based
# Description: (§1) Physiologically occurring phospholipids can be taken up by virtually all cell lines in large quantities. It is known that phospholipids that contain non-physiologically occurring fatty acid residues can cause cell lyses or death. Three cell lines (HeLa, HUVEC and L929 fibroblast) were cultured in a suitable culture medium of 5% FCS at 37° C. and 5% CO2 concentrations to a subconfluent concentration of 1.5×10^5 cells.
# (§2) SOPC, DOPC, POPC, ONOPC, PNLPC, and the free fatty acids of OA, LA, NOOA, and NOLA were dissolved in 0.5% DMSO. Experiments were performed also with nitro-carboxylic acid-containing phospholipids according to examples N15-N20, G, O3, O5, P2, P5, P8, P9, P11 and Q. PL prepared as aqueous suspensions were added the culture flasks in order to achieve PL concentrations in the culture medium from 10 μmol to 1 mmol. Cell cultures were incubated for 24 h and 48 h. Thereafter, the culture medium was removed and the cells washed twice. Following this, cells suspensions were given in four vials to perform the following analysis:
# Studies of cell viability were carried out with the live/dead assay (Molecular Probes). For this purpose, the cells were washed twice with PBS solution and then seeded into a culture medium. Incubation with the staining solution (in 0.1% DMSO) was carried out over 30 minutes in the dark. The viability analyses were performed using fluorescence microscopy.
# [5] = test system: HeLa, HUVEC and L929 fibroblast; assay: Volumetric measurement of cells (Coulter counter); format: cell-based; settings: time-dependent increase after incubation
# Description: as §1, §2
# Volumetric measurement of cells was done in a Histopenz (Sigma) solution with an effective NaCl concentration of 0.9% (approximately 290 mOsm) heated to 37° C. in which the cells were suspended; thereafter the solution was sonified for 2 minutes. Measurements were done using a Coulter counter Z2.
# [6] = test system: HeLa, HUVEC and L929 fibroblast; assay: cells; format: cell-based; settings: tested concentrations 10 μmol to 1 mmol; EC50 could not be calculated
# Description: as §1
# SOPC, DOPC, POPC, ONOPC, PNLPC, and the free fatty acids of OA, LA, NOOA, and NOLA were dissolved in 0.5% DMSO. […] Cell cultures were incubated for 24 h and 48 h. Thereafter, the culture medium was removed and the cells washed twice. Following this, cells suspensions were given in four vials to perform the following analysis:
# For the determination of viability, phenol red was added to the suspended cells. After 4 h, the medium was renewed and 10 μl of the MTT solution was added. The cells were cultured for 4 hours, and then a 10% SDS solution was pipetted. After 24 h, absorption of formazan crystals was measured at 500 nm using a power wave X (bio-tek instruments, Inc., USA). For the quantitative comparison of toxicity, the EC50 was determined.
# Sequence of Glycophorin A (GpA) peptides (P02724 92-114 limits assumed, species assumed): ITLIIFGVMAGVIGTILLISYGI
molecule,measurement,setting,value
"CCCCC/C=C\C/C=C(\CCCCCCCC(=O)O[C@H](COC(=O)CCCCCCCCCCCCCCCCC)COP(=O)([O-])OCC[N+](C)(C)C)[N+](=O)[O-] [Example P13, 1-stearoyl-2-(E-9-nitrolinoleoyl)-sn-3-glycerophosphocholine]",degree of dimerization of the model membrane protein,[1],significantly greater reduction of dimerization
"1,2-di-(nitrolinoleoyl)-sn-glycero-3-phosphatidylcholines [Example N2]",endothelial cell coverage and growth on coated struts,[2],slight tendency for a stronger growth of cells
same,proportion of living cells relative to non-frozen control,sciatic nerve,79%
same,rate of intact follicles relative to the control group,ovarian tissue strips,94%
"CCCCCCCC/C=C\CCCCCCCC(=O)O[C@H](COC(=O)CCCCCCCCCCCCCCC)COP(=O)([O-])OCC[N+](C)(C)C [POPC, 1-Palmitoyl-2-oleoyl-sn-glycero-3-PC, reference compound]",proportion of trans-fatty acids,"[3]; after heat treatment (60° C., three hours)",80%
same,degree of transisomerization,[3]; coatings after 2 months,95%
same,degree of transisomerization,"[3]; top coating with PEG, after 2 month",86%
same,viability according to the live/dead staining,[4],high rate of viability
same,cell volume (increase in size to),[5],160%
same,viability as quantified by the MTT assay,[6],only slightly decreased
"1,2-di-(nitro-DHA)-sn-glycero-3-phosphatidylcholines [Example N6]",endothelial cell coverage and growth on coated struts,[2],slight tendency for a stronger growth of cells
same,proportion of living cells relative to non-frozen control,sciatic nerve,72%
same,rate of intact follicles relative to the control group,ovarian tissue strips,92%
